The structures appear in SMILES notation.

The values that follow come from patent US20080039461A1, “Treatment of pain by inhibition of p38 map kinase” (priority 2002, published 2008).

Type in all cases: in vivo, rat
Experiment [1] deals with NMDA-induced hyperalgesia. Kind of experiment: hyperalgesia induced by intrathecal NMDA. Conditions: IT NMDA 0.3 μg; MK801 10 μg, IT SD 3-60 μg, IT SB 1-30 μg, SA 10 μg. The source says:
(§1) Male Sprague-Dawley rats (300-350 g) were implanted under isoflurane anesthesia with lumbar polyethylene (PE-10) catheters according to a modified method originally described in Physiol. Behav. 17, 1031 (1976). […] IT saline and 5% DMSO alone had no effect on behavior or protein expression/phosphorylation.

In experiment [2] the test system is formalin-induced flinching behavior. Kind of experiment: formalin-induced flinching (paw formalin model). To be noted: intrathecal pre-treatment (-10 min). How it is done:
An evaluation was conducted to determine presence or lack thereof for an afferent-mediated induction of phosphorylated (activated) spinal p38 MAPK. A formalin mediated hyperalgesia model was utilized to conduct the evaluation. (In the formalin model, a standard dose of formalin is injected into the rat paw, and flexions of the paw are quantitated over the following 90 minute period. A biphasic response pattern is typically observed, with numerous responses observed during the period five minutes after injection (Phase 1) and a second phase (Phase 2), which occurs during the period about 10-60 minutes following injection. The mean number of flinches per minute is recorded as a function of time. Quantitation of responses during each phase can be accomplished by calculation of area under the curve of flinches/minute.) The formalin induction model reflects several levels of processing of nociceptive information in the spinal cord. See, e.g., U.S. Pat. No. 6,166,085. […] This second phase is thought to represent a state of facilitated processing evoked by the afferent input present during phase I and to involve release of at least two substances, glutamate and a tachykinin, based on pharmacological evidence. Injection of formalin into the paw evokes an initial burst of afferent input followed by a persistent low level discharge. […]

Experiment [3] relates to thermal hyperalgesia induced by IT sP. Kind of experiment: thermal hyperalgesia evoked by intrathecal substance P. To be noted: intrathecal pretreatment (-10 min); sP 30 nmol/10 μL. The method, then: (The inhibitory activity of SD for p38 alpha and p38 beta was evaluated with an assay using recombinant (E. coli) human enzymes and myelin basic protein as a substrate by the methods of Clerk and Kumar respectively. See A. Clerk, P. […]. Sugden, FEBS Lett 426, 93-6. (1998) and S. Kumar, et al., Biochem Biophys Res Commun 235, 533-8. (1997).
as §1

In experiment [4] the test system is carrageenan-induced thermal hyperalgesia. Kind of experiment: carrageenan-induced thermal hyperalgesia (Hargreaves-type device). How it is done: Hyperalgesia was induced in the rat's right hindpaw by intraplantar injection of carrageenan (2 mg in 0.1 ml of a […] solution (weight/volume) in physiological saline). To assess the thermally evoked paw withdrawal time, a device modeled after that described by Hargreaves (1988) was used. See Hargreaves K, Dubner R, Brown F, Flores C, Joris J. A new and sensitive method for measuring thermal nociception in cutaneous hyperalgesia, Pain, 32, 77-88 (1988). The device consisted of a glass surface on top of which the rats were placed. The glass surface was heated by a focused projection bulb below the glass surface. The first sign of discomfort is usually expressed as an attempt to sit up and lick the forepaws by the experimental animal. This response indicates a threshold of pain under the predetermined conditions. Dancing and jumping about by an undrugged animal is an indicator of unbearable pain; whereas drugged animals more commonly withdraw the hind paws and keep them close to their abdomen. A timer was actuated with the light source and latency defined as the time required for the paw to be withdrawn from the glass surface. See Dirig D M, Isakson P C, and Yaksh T L. J Pharmacol Exp Ther., 285, 1031-8 (1998).

Turning to `C[S+]([O-])c1ccc(-c2nc(-c3ccncc3)c(-c3ccc(F)cc3)[nH]2)cc1` (centres unmarked) [SB, SB203580], in experiment [1], the “hyperalgesia induced by IT NMDA” value is recorded as “reversed in a dose dependent fashion”. Also, the “second phase of flinching behavior induced by formalin” value in experiment [2] is reported as “potent dose-dependent attenuation”. Besides, in experiment [3], the “thermal hyperalgesia induced by IT sP” value is listed as “blocked the thermal hyperalgesia induced by IT sP in a dose dependent fashion”. The carrageenan-induced thermal hyperalgesia result in experiment [4] (intrathecal pre-treatment (-10 min)) is listed as “potent dose-dependent suppression”. The “response latency of the uninduced paw” value in experiment [4] (intrathecal, even after the highest doses) is given as “no changes”.
